Data on three compounds can be found in PMC3943701 (Biochimica et biophysica acta, 2013).

Series [1] has as its system M2 His37. Particulars: addition of amantadine; ref [17]; cited from earlier work.
For series [2], the system named is M2(19–62) thiazolylalanine construct. The class given is biochemical, influenza A virus (A/Udorn/72). Particulars: pH 2.4.
The test system of series [3] is M2(19–62) wild type construct. The class given is biochemical, influenza A virus (A/Udorn/72). Particulars: liposomes pre-mixed with amantadine HCl 3 h, 18°C.
For series [4], the system named is influenza A/M2 protein. As to conditions: sensitive circulating influenza strains; ref [2], [3]; cited from earlier work.
The conditions of series [5]: in solution, no reference given, cited from earlier work.

“Also recorded” adds a separate entry of the source. Like-named read-outs stand apart in the source and are kept apart here.

Take `NC12CC3CC(CC(C3)C1)C2` [amantadine]: the “effect on His37 ring flip, protonation and deprotonation (in words)” value in series [1] is reported as “significantly inhibited”. Besides, in series [2], the “amantadine inhibition of currents (in words)” value is listed as “robust amantadine inhibition”. Also, the “inhibitory effect of amantadine on flux (in words)” value in series [3] (bathing buffer pH 2.4) is on record as “No inhibitory effect; also recorded: begins to be lost”. For the same compound, the “amantadine sensitivity of flux (in words)” value in series [3] (bathing buffer pH 7.4 and 4.9) was “amantadine-sensitive”. Besides, the “inhibition of M2 proton transport (in words)” value in series [4] is “inhibited”.
`N[C@@H](Cc1c[nH]cn1)C(=O)O` [histidine]: the figures for the “solution pKa of side chain” value in series [5] and in series [5] (listed as imidazole) were 6.5 and ~ 6.5, respectively.
With `CC(N)C12CC3CC(CC(C3)C1)C2` (centres unmarked) [rimantadine], the “inhibition of M2 proton transport (in words)” value in series [4] was “inhibited”.
